Laboratory results reported in US12421229B2, “Hydropyrido[1,2-α]pyrazine compounds for the treatment of autoimmune disease” (Hoffmann-La Roche Inc., priority 2019, dated 2025).

What was measured:
Format in all cases: in vitro ADME
[1] = molecular target: T1, CYP2C9 (Homo sapiens, UniProt P11712); assay: CYP inhibition assay in human liver microsome, CYP2C9; conditions: percentage inhibition, substrate Diclofenac 5 μM
T1 construct: tissue BD-Gentest 452117; host or cells: human liver microsomes
Description: (§1) This is a high throughput screening assay used for assessment of reversible inhibition of CYP2C9, CYP2D6, and CYP3A4 activity of test compounds in human liver microsome (HLM) in early discovery stage.
(§2) 10 mM DMSO stock solutions of test compounds were diluted in DMSO to generate 2 mM intermediate stock solution. 250 nL of intermediate stock solution were transferred in duplicate into 3 separate 384 well microtitre plates (assay-ready plates). A mixture of HLM and each substrate was made up. 45 μL of HLM substrate mix was then transferred to each well of an assay ready plate and mixed. The negative (solvent) and positive controls (standard inhibitor for each CYP) were included in each assay ready plate. The assay ready plate was warmed to 37° C. in an incubator over 10 minutes. 5 μL pre-warmed NADPH regenerating system was added to each incubation well to start the reaction. Final incubation volume was 50 μL. The assay plate then was placed back in the 37° C. incubator. After incubation (10 minutes for CYP2D6) for 5 minutes, incubates were quenched by addition of 50 μL 100% acetonitrile containing internal standards (400 ng/mL 13C6-4′-OH-Diclofenac, 20 ng/mL D3-Dextrorphan and 20 ng/mL D4-1′OH-Midazolam). The supernatants were collected for RapidFire/MS/MS analysis.
(§3) RapidFire online solid phase extraction/sample injection system (Agilent) coupled with API4000 triple quadrupole mass spectrometer (AB Sciex) were used for sample analysis. The mobile phase composed of acetonitrile and water supplemented with 0.1% formic acid. A C4 solid phase extraction cartridge is used for sample separation. MS detection is achieved in positive ion MRM mode.
(§4) Peak areas for substrate, metabolite and internal standard are determined using the RapidFire integrator software (version 3.6.12009.12296). Peak area ratios (PAR) of metabolite and internal standard (stable-labelled metabolite) are then calculated. The measurement window for each experiment is then defined:
(§5) PAR (0% activity)=average PAR for all incubations containing concentrated inhibitor;
(§6) Par (100% activity)=average PAR for all incubations containing no inhibitor (DMSO controls);
(§7) % Activity (test inhibitor)=[PAR(test inhibitor)−PAR(0% activity)/PAR(100% activity)−PAR(0% activity)];
(§8) % Inhibition (test inhibitor)=100−% Activity (test inhibitor).

[2] = molecular target: T2, CYP2D6 (Homo sapiens, UniProt P10635); assay: CYP inhibition assay in human liver microsome, CYP2D6; conditions: percentage inhibition, substrate Dextromethorphan 5 μM
T2 construct: tissue BD-Gentest 452117; host or cells: human liver microsomes
T2 sequence (P10635 whole entry): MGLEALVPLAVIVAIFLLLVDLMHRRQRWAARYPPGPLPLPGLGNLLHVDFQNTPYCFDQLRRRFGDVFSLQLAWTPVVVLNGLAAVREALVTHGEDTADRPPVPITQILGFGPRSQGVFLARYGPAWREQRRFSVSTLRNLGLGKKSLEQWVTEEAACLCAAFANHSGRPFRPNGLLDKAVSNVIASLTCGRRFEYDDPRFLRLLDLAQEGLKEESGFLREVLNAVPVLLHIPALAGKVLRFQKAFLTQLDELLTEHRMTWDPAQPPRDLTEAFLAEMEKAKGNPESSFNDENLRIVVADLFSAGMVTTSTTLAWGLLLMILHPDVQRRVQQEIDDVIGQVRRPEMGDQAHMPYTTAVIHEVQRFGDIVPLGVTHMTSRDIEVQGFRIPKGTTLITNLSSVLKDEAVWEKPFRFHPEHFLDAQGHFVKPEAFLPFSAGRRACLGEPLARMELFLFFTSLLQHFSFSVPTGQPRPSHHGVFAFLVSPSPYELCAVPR
Description: as §1, §2, §3, §4, §5, §6, §7, §8

[3] = molecular target: T3, CYP3A4 (Homo sapiens, UniProt P08684); assay: CYP inhibition assay in human liver microsome, CYP3A4; conditions: percentage inhibition, substrate Midazolam 5 μM
T3 construct: tissue BD-Gentest 452117; host or cells: human liver microsomes
T3 sequence (P08684 whole entry): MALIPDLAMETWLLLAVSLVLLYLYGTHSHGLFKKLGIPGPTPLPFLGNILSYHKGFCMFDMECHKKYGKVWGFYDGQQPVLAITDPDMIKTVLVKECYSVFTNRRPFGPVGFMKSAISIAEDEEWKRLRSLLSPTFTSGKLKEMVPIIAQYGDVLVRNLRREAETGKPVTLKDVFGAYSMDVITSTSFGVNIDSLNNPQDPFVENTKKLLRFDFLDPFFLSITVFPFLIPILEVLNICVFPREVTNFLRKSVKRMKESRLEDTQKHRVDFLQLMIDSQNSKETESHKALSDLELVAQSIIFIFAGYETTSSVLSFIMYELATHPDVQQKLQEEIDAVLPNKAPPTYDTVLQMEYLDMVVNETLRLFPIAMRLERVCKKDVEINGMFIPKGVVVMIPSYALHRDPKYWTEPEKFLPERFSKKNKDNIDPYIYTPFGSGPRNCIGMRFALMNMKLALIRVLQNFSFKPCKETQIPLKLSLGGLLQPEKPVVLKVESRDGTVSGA
Description: as §1, §2, §3, §4, §5, §6, §7, §8

T1 sequence (P11712 whole entry): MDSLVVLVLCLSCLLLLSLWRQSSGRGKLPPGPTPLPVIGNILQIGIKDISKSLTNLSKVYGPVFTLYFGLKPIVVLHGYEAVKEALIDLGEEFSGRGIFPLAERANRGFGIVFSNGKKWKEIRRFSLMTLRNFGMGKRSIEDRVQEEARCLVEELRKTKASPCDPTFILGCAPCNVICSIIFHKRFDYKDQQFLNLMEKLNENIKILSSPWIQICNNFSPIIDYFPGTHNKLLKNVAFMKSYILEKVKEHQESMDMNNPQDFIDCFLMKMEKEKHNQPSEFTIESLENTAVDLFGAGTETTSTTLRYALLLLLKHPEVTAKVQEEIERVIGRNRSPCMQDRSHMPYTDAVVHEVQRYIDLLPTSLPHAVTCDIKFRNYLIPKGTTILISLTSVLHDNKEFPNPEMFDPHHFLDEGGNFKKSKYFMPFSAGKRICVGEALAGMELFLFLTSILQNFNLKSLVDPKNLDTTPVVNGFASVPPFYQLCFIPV

| Compound | CYP (%) 2C9 [1] [%] | CYP (%) 2D6 [2] [%] | CYP (%) 3A4 [3] [%] |
| --- | --- | --- | --- |
| C[C@@H]1CN(c2ccc(C#N)c3ncccc23)C[C@@H]2C[C@@H](Oc3ccc(N4CCNCC4)cn3)CCN21 [Example 11, 5-[(4R,8S,9aS)-4-methyl-8-[(5-piperazin-1-yl-2-pyridyl)oxy]-1,3,4,6,7,8,9,9a-octahydropyrido[1,2-a]pyrazin-2-yl]quinoline-8-carbonitrile] | 0 | −24.5 | 12 |
| [2H]c1ccc2c(N3C[C@@H]4C[C@H](N5CCN(c6ccncc6)CC5)CCN4[C@H](C)C3)ccc(C#N)c2n1 [Example 37, 5-[(4R,8R,9aS)-4-methyl-8-[4-(4-pyridyl)piperazin-1-yl]-1,3,4,6,7,8,9,9a-octahydropyrido[1,2-a]pyrazin-2-yl]-2-deuterio-quinoline-8-carbonitrile] | 4.5 | 14.5 | 32.5 |
| C[C@@H]1CN(c2ccc(C#N)c3ncccc23)C[C@@H]2C[C@H](N3CC(c4ccc(N5CCNCC5)cc4)C3)CCN21 [Example 9, 5-[(4R,8R,9aS)-4-methyl-8-[3-(4-piperazin-1-ylphenyl)azetidin-1-yl]-1,3,4,6,7,8,9,9a-octahydropyrido[1,2-a]pyrazin-2-yl]quinoline-8-carbonitrile] | −6.5 | −2 | 9.5 |
| C[C@@H]1CN(c2ccc(C#N)c3ncccc23)C[C@@H]2C[C@H](Nc3ccc(C[C@@H]4CNCCO4)cc3)CCN21 [Example 21, 5-[(4R,8R,9aS)-4-methyl-8-[4-[[(2R)-morpholin-2-yl]methyl]anilino]-1,3,4,6,7,8,9,9a-octahydropyrido[1,2-a]pyrazin-2-yl]quinoline-8-carbonitrile] | 3 | 9 | 15.5 |
| [2H]c1ccc2c(N3C[C@@H]4C[C@H](Nc5ccc(C[C@H]6CNCCO6)cc5)CCN4[C@H](C)C3)ccc(C#N)c2n1 [Example 34, 5-[(4R,8R,9aS)-4-methyl-8-[4-[[(2S)-morpholin-2-yl]methyl]anilino]-1,3,4,6,7,8,9,9a-octahydropyrido[1,2-a]pyrazin-2-yl]-2-deuterio-quinoline-8-carbonitrile] | −20 | 2.5 | 3.5 |

Results, then the compound that gave them:

| CYP (%) 2C9 [1] [%] | CYP (%) 2D6 [2] [%] | CYP (%) 3A4 [3] [%] | Compound |
| --- | --- | --- | --- |
| −8 | −12.5 | 11 | CO[C@H]1CN(c2ccc([C@@H]3CCN4[C@@H](C3)CN(c3ccc(C#N)c5ncccc35)C[C@H]4C)cn2)C[C@@H]1N [Example 6, 5-[(4R,8R,9aS)-8-[6-[(3S,4S)-3-amino-4-methoxy-pyrrolidin-1-yl]-3-pyridyl]-4-methyl-1,3,4,6,7,8,9,9a-octahydropyrido[1,2-a]pyrazin-2-yl]quinoline-8-carbonitrile] |
| 14.5 | 0 | 37.5 | CO[C@H]1CN(c2ccc([C@@H]3CCN4[C@@H](C3)CN(c3ccc(C#N)c5ncccc35)C[C@H]4C)cn2)C[C@H]1N [Example 12, 5-[(4R,8R,9aS)-8-[6-[(3R,4S)-3-amino-4-methoxy-pyrrolidin-1-yl]-3-pyridyl]-4-methyl-1,3,4,6,7,8,9,9a-octahydropyrido[1,2-a]pyrazin-2-yl]quinoline-8-carbonitrile] |
| −3.5 | −6 | 30 | C[C@@H]1CN(c2ccc(C#N)c3ncccc23)C[C@@H]2C[C@H](c3ccc(N4C[C@@H](N)[C@@H](F)C4)nc3)CCN21 [Example 19, 5-[(4R,8R,9aS)-8-[6-[(3R,4S)-3-amino-4-fluoro-pyrrolidin-1-yl]-3-pyridyl]-4-methyl-1,3,4,6,7,8,9,9a-octahydropyrido[1,2-a]pyrazin-2-yl]quinoline-8-carbonitrile] |
| 4 | 8 | 37 | C[C@@H]1CN(c2ccc(C#N)c3ncccc23)C[C@@H]2C[C@H](c3ccc([C@@H]4CNCCO4)cc3)CCN21 [Example 27, 5-[(4R,8R,9aS)-4-methyl-8-[4-[(2R)-morpholin-2-yl]phenyl]-1,3,4,6,7,8,9,9a-octahydropyrido[1,2-a]pyrazin-2-yl]quinoline-8-carbonitrile] |
| 6 | −5.5 | 38 | C[C@@H]1CN(c2ccc(C#N)c3ncccc23)C[C@@H]2C[C@H](c3ccc(N4CCNCC4)nc3)CCN21 (stereo in doubt) [Example 2, 5-[(4R,8R)-4-methyl-8-(6-piperazin-1-yl-3-pyridyl)-1,3,4,6,7,8,9,9a-octahydropyrido[1,2-a]pyrazin-2-yl]quinoline-8-carbonitrile] |
| −1 | −0.5 | 19.5 | CO[C@@H]1CN(c2ccc([C@@H]3CCN4[C@@H](C3)CN(c3ccc(C#N)c5ncccc35)C[C@H]4C)cn2)C[C@H]1N [Example 14, 5-[(4R,8R,9aS)-8-[6-[(3R,4R)-3-amino-4-methoxy-pyrrolidin-1-yl]-3-pyridyl]-4-methyl-1,3,4,6,7,8,9,9a-octahydropyrido[1,2-a]pyrazin-2-yl]quinoline-8-carbonitrile] |
